Laboratory results from US4681969A, “Process for the preparation of an enantiomeric pair of isomers of cyfluthrin” (Imperial Chemical Industries PLC, priority 1984, dated 1987).
≈ marks a conversion by molar mass, not a printed value. Read-outs that look alike come from different tables or passages of the source.

Experiments:
[1] = relative insecticidal efficacy (general statement); assay type: in vivo; details: Starting Material vs previously described mixture of cis and trans isomers; Racemate vs Starting Material
[2] = tested on: Heliothis virescens (tobacco budworm); test: LC50 against larval tobacco budworm; assay type: in vivo; details: for LC50: read-out: LC50 (concentration required to kill 50% of a population)
Source text: The isomers were obtained by the h.p.l.c. technique shown in the next Example.

| Compound | relative insecticidal efficacy [1] | LC50 ([2]; larval Heliothis virescens) [µg/mL] | efficacy relative to cyfluthrin ([2]; larval Heliothis virescens, from LC50 values) | LC50 ([2]; Heliothis virescens) [µg/mL] |
| --- | --- | --- | --- | --- |
| CC1(C)[C@H](C(=O)OC(C#N)c2ccc(F)c(Oc3ccccc3)c2)[C@@H]1C=C(Cl)Cl (mixture of isomers) [The Starting Material, (RS) -α-cyano-4-fluoro-3-phenoxybenzyl (1RS,cis)-3-(2,2-dichlorovinyl)-2,2-dimethylcyclopropane carboxylate] | potent insecticide of greater relative efficacy than the previously described mixture of cis and trans isomers | – | – | – |
| CC1(C)C(C=C(Cl)Cl)C1C(=O)OC(C#N)c1ccc(F)c(Oc2ccccc2)c1 (racemic) [Cyfluthrin, (R,S)-α-cyano-4-fluoro-3-phenoxybenzyl (1R,S-cis)/(1R,S-trans)-3-(2,2-dichlorovinyl)-2,2-dimethylcyclopropane carboxylate] | – | 7.1 (≈ 16.3 µM) | – | – |
| CC1(C)[C@H](C(=O)O[C@H](C#N)c2ccc(F)c(Oc3ccccc3)c2)[C@@H]1C=C(Cl)Cl (relative stereo) [1R,cis-S/1S,cis-R, (S)-α-cyano-4-fluoro-3-phenoxybenzyl (1R,cis)-3-(2,2-dichlorovinyl)-2,2-dimethylcyclopropanecarboxylate and its enantiomer, (R)-α-cyano-4-fluoro-3-phenoxybenzyl (1S,cis)-3-(2,2-dichlorovinyl)-2,2-dimethylcyclopropane carboxylate] | even more effective insecticidal product | 1.8 (≈ 4.14 µM) | about four times more efficacious than cyfluthrin | – |
| CC1(C)[C@H](C=C(Cl)Cl)[C@H]1C(=O)O[C@H](C#N)c1ccc(F)c(Oc2ccccc2)c1 (relative stereo) [1R,trans-S/1S,trans-R] | – | 3.6 (≈ 8.29 µM) | – | – |
| CC1(C)[C@H](C(=O)O[C@@H](C#N)c2ccc(F)c(Oc3ccccc3)c2)[C@@H]1C=C(Cl)Cl (relative stereo) [1S,cis-S/1R,cis-R, (R)-α-cyano-4-fluoro-3-phenoxybenzyl (1R,cis)-3-(2,2-dichlorovinyl)-2,2-dimethylcyclopropane carboxylate and (S)-α-cyano-4-fluoro-3-phenoxybenzyl (1S,cis)-3-(2,2-dichlorovinyl)-2,2-dimethylcyclopropane carboxylate] | – | – | – | 23.4 (≈ 53.9 µM) |
